The nature of assay [1]: Bacterial membrane permeabilization assay (carboxyfluorescein leakage from liposomes). Format: biochemical. To be noted: large unilamellar liposomes from E. coli phospholipid extract, 45 min, 37 °C.
For a further assay, the target named is cellular LPS receptors. The arrangement: method as in PMID 24281661. To be noted: read-out: IC50 inhibition of binding of bacterial LPS to cellular receptors; cited from earlier work.

The term EC50 denotes the concentration giving half of the maximal effect. The term IC50 denotes the midpoint of a concentration-inhibition curve.

Turning to polymyxin B, the EC50 in assay [1] is 1000 nM; in assay [1] (listed as Polymyxin B), around 1000 nM. The IC50 on cellular LPS receptors is 3.6 nM.

Source of the values: publication PMC7684578, “Isopedopeptins A–H: Cationic Cyclic Lipodepsipeptides from Pedobacter cryoconitis UP508 Targeting WHO Top-Priority Carbapenem-Resistant Bacteria” (ACS Chemical Biology, 2020).
